Values of other authors as cited in patent US20090131354A1, “miR-126 REGULATED GENES AND PATHWAYS AS TARGETS FOR THERAPEUTIC INTERVENTION” (priority 2007, published 2009).

Tested on: lung cancer (A549, HTB-57) or cervical cancer (HeLa) cells
Conditions: A549, HTB-57, HeLa; miRNA given before the compound; cited from earlier work

In the case of “hsa-miR-126 (UCGUACCGUGAGUAAUAAUGC; synthetic pre-miR form, further chemistry not given here) [Synthetic hsa-miR-126 (Pre-miR™-hsa-miR-126, Ambion cat. no. AM17100)]”, the “effect on cell death induced by therapeutic compound (e.g., etoposide)” value is listed as “increased the capacity of the therapeutic compound to induce death”.
